# Laboratory results: patent US8518710B2, “Photon reducing agents for fluorescence assays” (Life Technologies Corporation, priority 1997, dated 2013)
# Assay: Absorption maxima of dyes (Table 1)
# Type: physicochemical
row,Compound,Absorption maxima of dyes
1,Acid Fuchsin,546 nm
2,Acid Red 37,513 nm

# Now from value to compound:
row,Absorption maxima of dyes,Compound
1,635 nm,CCN(CC)c1ccc(C(=C2C=CC(=[N+](CC)CC)C=C2)c2cc(O)c(S(=O)(=O)O)cc2S(=O)(=O)O)cc1 [Patent Blue]
2,425 nm,O=C([O-])C1=NN(c2ccc(S(=O)(=O)[O-])cc2)C(=O)C1N=Nc1ccc(S(=O)(=O)[O-])cc1.[Na+].[Na+].[Na+] (centres unmarked) [Tartrazine]
3,607 nm,Cc1cc(-c2ccc(/N=N/c3c(S(=O)(=O)O)cc4cc(S(=O)(=O)O)cc(N)c4c3O)c(C)c2)ccc1/N=N/c1c(S(=O)(=O)O)cc2cc(S(=O)(=O)O)cc(N)c2c1O [Trypan Blue]
